Laboratory results reported in ChEMBL document CHEMBL1909046, “DrugMatrix in vitro pharmacology data”.

What was measured:
[1] = biological target: T1, Alpha-1A adrenergic receptor (Rattus norvegicus, UniProt P43140); experiment: DRUGMATRIX: Alpha-1A adrenergic receptor radioligand binding (ligand: prazosin); format: cell membranes, Wistar, Submaxillary gland, Membrane; details: Not Active = under 50% inhibition at 10 µM
T1 sequence (P43140 whole entry): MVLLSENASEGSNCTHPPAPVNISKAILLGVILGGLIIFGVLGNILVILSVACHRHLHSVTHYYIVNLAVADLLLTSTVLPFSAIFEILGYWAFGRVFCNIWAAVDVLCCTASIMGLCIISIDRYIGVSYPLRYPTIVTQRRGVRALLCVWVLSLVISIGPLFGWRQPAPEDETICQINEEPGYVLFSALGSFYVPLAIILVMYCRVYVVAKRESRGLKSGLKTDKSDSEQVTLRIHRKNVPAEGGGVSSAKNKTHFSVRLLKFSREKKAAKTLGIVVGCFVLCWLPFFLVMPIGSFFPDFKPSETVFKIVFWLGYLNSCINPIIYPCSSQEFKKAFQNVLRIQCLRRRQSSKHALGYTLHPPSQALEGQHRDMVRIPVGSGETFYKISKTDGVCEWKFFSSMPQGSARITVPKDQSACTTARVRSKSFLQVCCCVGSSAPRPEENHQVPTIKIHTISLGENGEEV

B2 bradykinin receptor = biological target: T2, B2 bradykinin receptor (Homo sapiens, UniProt P30411); format: cell membranes, Membrane; details: chem-1; also: in other assays of this panel Not Active means under 50% inhibition at 10 µM
T2 sequence (P30411 whole entry): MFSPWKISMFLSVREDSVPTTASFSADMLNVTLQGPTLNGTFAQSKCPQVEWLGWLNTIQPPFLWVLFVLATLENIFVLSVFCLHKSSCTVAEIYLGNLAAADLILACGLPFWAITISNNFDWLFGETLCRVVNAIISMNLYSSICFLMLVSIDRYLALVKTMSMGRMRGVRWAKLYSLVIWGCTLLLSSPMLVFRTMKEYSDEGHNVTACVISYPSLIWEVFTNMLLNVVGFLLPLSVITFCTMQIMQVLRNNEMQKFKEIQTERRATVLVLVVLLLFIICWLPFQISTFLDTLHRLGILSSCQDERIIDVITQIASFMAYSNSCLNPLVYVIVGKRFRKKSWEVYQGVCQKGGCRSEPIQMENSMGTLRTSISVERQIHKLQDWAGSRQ

[2] = biological target: T3, Muscarinic acetylcholine receptor M4 (Homo sapiens, UniProt P08173); format: cell membranes, CHO-K1, Membrane; details: cho-k1; also: in other assays of this panel Not Active means under 50% inhibition at 10 µM
T3 sequence (P08173 whole entry): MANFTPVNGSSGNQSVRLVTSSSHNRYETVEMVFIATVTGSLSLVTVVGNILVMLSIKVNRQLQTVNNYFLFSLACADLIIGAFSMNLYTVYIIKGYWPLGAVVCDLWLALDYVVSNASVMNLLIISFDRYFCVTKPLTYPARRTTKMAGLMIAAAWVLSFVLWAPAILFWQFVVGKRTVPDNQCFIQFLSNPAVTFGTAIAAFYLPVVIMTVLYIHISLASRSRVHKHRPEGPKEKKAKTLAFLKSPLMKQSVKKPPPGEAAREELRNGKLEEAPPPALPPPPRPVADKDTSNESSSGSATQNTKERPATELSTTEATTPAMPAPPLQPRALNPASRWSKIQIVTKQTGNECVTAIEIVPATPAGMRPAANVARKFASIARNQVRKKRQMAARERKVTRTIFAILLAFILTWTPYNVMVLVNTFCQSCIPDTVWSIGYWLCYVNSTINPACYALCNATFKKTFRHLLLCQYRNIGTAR

[3] = biological target: T4, Angiotensin-converting enzyme (Oryctolagus cuniculus, UniProt P12822); format: tissue-based, Lung;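 also: enzymatic inhibition of angiotensin-converting enzyme measured with FAPGG as the substrate; in other assays of this panel Not Active means under 50% inhibition at 10 µM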
T4 sequence (P12822 whole entry): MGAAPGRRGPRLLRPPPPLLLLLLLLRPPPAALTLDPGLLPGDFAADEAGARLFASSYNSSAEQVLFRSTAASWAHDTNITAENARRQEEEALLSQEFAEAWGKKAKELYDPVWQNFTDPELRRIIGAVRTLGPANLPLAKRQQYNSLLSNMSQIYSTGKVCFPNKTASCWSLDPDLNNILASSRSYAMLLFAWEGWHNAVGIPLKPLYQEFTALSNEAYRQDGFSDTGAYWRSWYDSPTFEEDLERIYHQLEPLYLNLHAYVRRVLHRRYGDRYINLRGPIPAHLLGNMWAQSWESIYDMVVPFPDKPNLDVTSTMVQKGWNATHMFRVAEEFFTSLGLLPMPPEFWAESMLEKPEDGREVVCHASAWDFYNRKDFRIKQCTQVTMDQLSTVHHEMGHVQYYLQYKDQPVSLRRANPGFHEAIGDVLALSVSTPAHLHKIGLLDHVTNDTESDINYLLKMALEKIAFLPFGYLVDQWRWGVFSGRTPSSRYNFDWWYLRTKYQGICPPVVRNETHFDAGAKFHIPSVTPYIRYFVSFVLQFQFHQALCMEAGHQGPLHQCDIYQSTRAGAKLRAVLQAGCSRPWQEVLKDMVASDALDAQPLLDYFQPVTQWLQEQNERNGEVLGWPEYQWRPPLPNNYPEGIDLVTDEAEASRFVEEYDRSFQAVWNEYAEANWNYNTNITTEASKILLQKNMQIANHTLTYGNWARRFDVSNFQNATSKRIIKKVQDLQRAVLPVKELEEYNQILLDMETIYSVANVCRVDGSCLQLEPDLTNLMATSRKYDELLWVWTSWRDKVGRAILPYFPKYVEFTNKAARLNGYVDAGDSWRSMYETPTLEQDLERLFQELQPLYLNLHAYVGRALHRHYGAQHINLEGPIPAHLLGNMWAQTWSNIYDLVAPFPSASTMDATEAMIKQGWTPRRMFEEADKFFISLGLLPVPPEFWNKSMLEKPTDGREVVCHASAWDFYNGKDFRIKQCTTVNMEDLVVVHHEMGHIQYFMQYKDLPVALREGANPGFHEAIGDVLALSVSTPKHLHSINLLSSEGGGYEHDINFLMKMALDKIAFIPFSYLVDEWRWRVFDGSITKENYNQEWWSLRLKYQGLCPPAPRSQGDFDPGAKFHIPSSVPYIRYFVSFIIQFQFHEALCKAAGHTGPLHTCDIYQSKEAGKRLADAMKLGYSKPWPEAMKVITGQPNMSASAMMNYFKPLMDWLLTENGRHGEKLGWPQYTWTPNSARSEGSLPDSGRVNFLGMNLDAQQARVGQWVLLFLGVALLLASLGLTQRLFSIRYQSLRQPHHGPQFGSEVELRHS

Row | Molecule | IC50 [1] | IC50 (B2 bradykinin receptor) | IC50 [2] | IC50 [3] | IC50 ([1]; read-out: IC50) [nM] | Ki ([1]; read-out: Ki) [nM] | Ki [1] | Ki (B2 bradykinin receptor) | Ki [2] | Ki [3]
1 | Cn1c(=O)c2c(ncn2CC(O)CO)n(C)c1=O (configuration not stated) [DYPHYLLINE] | Not Active | Not Active | Not Active | Not Active | – | – | – | – | – | –
2 | O=C(O)c1cccnc1Nc1cccc(C(F)(F)F)c1 [NIFLUMIC ACID] | Not Active | Not Active | Not Active | Not Active | – | – | – | – | – | –
3 | CC(C)c1cccc(C(C)C)c1O [PROPOFOL] | Not Active | Not Active | Not Active | Not Active | – | – | – | – | – | –
4 | COC(=O)Nc1nc2ccc(C(=O)c3cccs3)cc2[nH]1 [NOCODAZOLE] | Not Active | Not Active | Not Active | Not Active | – | – | – | – | – | –
5 | N=C(N)NC(=O)Cc1c(Cl)cccc1Cl [GUANFACINE] | – | Not Active | Not Active | Not Active | 1350 | 546 | – | – | – | –
6 | CC(C)NCC(O)COc1cccc2[nH]ccc12 (configuration not stated) [PINDOLOL] | Not Active | Not Active | Not Active | Not Active | – | – | – | – | – | –
7 | CC(=O)[C@@]1(O)CC[C@H]2[C@@H]3CCC4=CC(=O)CC[C@]4(C)[C@H]3CC[C@@]21C [HYDROXYPROGESTERONE] | Not Active | Not Active | Not Active | Not Active | – | – | – | – | – | –
8 | CC(=O)O[C@H]1C(=O)[C@@]2(C)[C@H]([C@H](OC(=O)c3ccccc3)[C@]3(O)C[C@H](OC(=O)[C@H](O)[C@@H](NC(=O)c4ccccc4)c4ccccc4)C(C)=C1C3(C)C)[C@]1(OC(C)=O)CO[C@@H]1C[C@@H]2O [PACLITAXEL] | Not Active | Not Active | Not Active | Not Active | – | – | – | – | – | –
9 | CCCOc1ccc(C(=O)OCCN(CC)CC)cc1N [PROPARACAINE] | Not Active | Not Active | Not Active | Not Active | – | – | – | – | – | –
10 | O=C(N/N=C/c1ccc([N+](=O)[O-])o1)c1cc([N+](=O)[O-])cc([N+](=O)[O-])c1O [NIFURSOL] | Not Active | Not Active | Not Active | Not Active | – | – | – | – | – | –
11 | CC(=O)Oc1ccc(C(c2ccc(OC(C)=O)cc2)c2ccccn2)cc1 [BISACODYL] | Not Active | Not Active | Not Active | Not Active | – | – | – | – | – | –
12 | CN(C)[C@@H]1C(O)=C(C(N)=O)C(=O)[C@@]2(O)C(O)=C3C(=O)c4c(O)ccc(Cl)c4[C@@](C)(O)[C@H]3C[C@@H]12 [CHLORTETRACYCLINE] | Not Active | Not Active | Not Active | Not Active | – | – | – | – | – | –
13 | Nc1ccn([C@@H]2O[C@H](CO)[C@@H](O)[C@@H]2O)c(=O)n1 [CYTARABINE] | Not Active | Not Active | Not Active | Not Active | – | – | – | – | – | –
14 | CCC1(CCC(C)C)C(=O)NC(=O)NC1=O [AMOBARBITAL] | Not Active | Not Active | Not Active | Not Active | – | – | – | – | – | –
15 | AURANOFIN | Not Active | Not Active | Not Active | Not Active | – | – | Not Active | Not Active | Not Active | Not Active
16 | O=C/C=C/c1ccccc1 | Not Active | Not Active | Not Active | Not Active | – | – | – | – | – | –
17 | C=CCc1ccc(O)c(OC)c1 [EUGENOL] | Not Active | Not Active | Not Active | Not Active | – | – | – | – | – | –
18 | COC1=C(OC)C(=O)C(CCCCCCCCCCO)=C(C)C1=O [IDEBENONE] | Not Active | Not Active | Not Active | Not Active | – | – | – | – | – | –
19 | Oc1cccc(O)c1O [PYROGALLOL] | Not Active | Not Active | Not Active | Not Active | – | – | – | – | – | –
20 | C[C@]12C=CC(=O)C=C1CC[C@@H]1[C@@H]2[C@@H](O)C[C@@]2(C)[C@H]1CC[C@]2(O)C(=O)CO [PREDNISOLONE] | Not Active | Not Active | Not Active | Not Active | – | – | – | – | – | –
21 | CC(=O)[C@H]1[C@H](C#N)C[C@H]2[C@@H]3CC=C4C[C@@H](O)CC[C@]4(C)[C@H]3CC[C@@]21C [PREGNENOLONE CARBONITRILE] | Not Active | Not Active | Not Active | Not Active | – | – | – | – | – | –
22 | CC(C(=O)O)c1cccc(Oc2ccccc2)c1 (configuration not stated) [FENOPROFEN] | Not Active | Not Active | Not Active | Not Active | – | – | – | – | – | –
23 | NNc1nncc2ccccc12 [HYDRALAZINE] | Not Active | Not Active | Not Active | Not Active | – | – | – | – | – | –
24 | O=C1O[C@H]([C@@H](O)CO)C(O)=C1O [ASCORBIC ACID] | Not Active | Not Active | Not Active | Not Active | – | – | – | – | – | –
25 | NC(=O)C[S+]([O-])C(c1ccccc1)c1ccccc1 (configuration not stated) [MODAFINIL] | Not Active | Not Active | Not Active | Not Active | – | – | – | – | – | –
26 | CCN(CC)CCOCCC1=CCC2CC1C2(C)C (configuration not stated) [MYRTECAINE] | Not Active | Not Active | Not Active | Not Active | – | – | – | – | – | –
27 | COc1ccc2cc3[n+](cc2c1OC)CCc1cc2c(cc1-3)OCO2.[Cl-] [BERBERINE CHLORIDE] | Not Active | Not Active | Not Active | Not Active | – | – | – | – | – | –
28 | GRAMICIDIN | Not Active | Not Active | Not Active | Not Active | – | – | Not Active | Not Active | Not Active | Not Active
29 | COc1cc2nc(N3CCN(C(=O)c4ccco4)CC3)nc(N)c2cc1OC [PRAZOSIN] | – | Not Active | Not Active | Not Active | – | – | – | – | – | –
30 | CN1[C@@H]2CC[C@H]1C[C@@H](OC(=O)C(CO)c1ccccc1)C2 (some centres not stated) [ATROPINE] | Not Active | Not Active | – | Not Active | – | – | – | – | – | –
